According to patent US9475802B2, “Inhibitors of viral replication, their process of preparation and their therapeutical uses” (LABORATOIRE BIODIM, priority 2012, dated 2016):

system: NL4-3 strain of HIV-1; assay: Inhibition of HIV replication: cyto-protection in Cell-Titer-Glo viability assay, MT4 cells infected with NL4-3 virus; assay type: cell-based; settings: Human immunodeficiency virus 1, NL43, 120 h, concentration leading to 50% of cyto-protection, 5 days incubation, CellTiter-Glo luminescence
Description: The antiviral activity, particularly against HIV, of compounds according to the invention is evaluated by the protocol described below.
Preparation of Virus Stock of the NL4-3 Strain of HIV-1 (Adachi et al, J Virol, 1986, 59(2):284-91).
The virus was prepared as described in Lopez et al (Lopez et al, Proc Natl Acad Sci USA., 2006, 103(40):14947-52, by transfecting 2×10^6 293 T cells (CRL-1573, ATCC) with following modifications: 6 μg of NL4-3 proviral DNA molecular clone were mixed with Fugene 6 transfection reagent from Roche, and used according to manufacturer's instructions. Forty eight hours later, transfected cell supernatants were harvested, filtered through 0.45-μm-pore-size filters, quantified for HIV-1 p24 antigen by using a Innotest HIV antigen mAb assay (Ingen) according to manufacturer's instructions, and used in infection experiments.
Serial dilutions of compounds to be tested were prepared in complete RPMI medium from 10 mM DMSO stock solutions, and distributed in a volume of 20 μL in 96 well Falcon 353072 Microtest™ tissue culture plate, in order to get 0.5% DMSO final concentration in each well, after the addition of infected cells. Control wells contained also 0.5% DMSO final concentration but no compound.
MT^4 cells (from the NIH AIDS Research and Reference Reagent Program) in RPMI complete medium were counted (10×10^6 cells per well in Falcon 353047 Multiwell™ 24 well) and infected for 2 hours at 37°, at a multiplicity of infection (moi) of 0.0001-0.00001. Cells were then centrifuged 3 min at 3000 rpm, and washed two times in 1 ml PBS to remove viruses that have not entered in cells. Infected cells were resuspended in complete RPMI at 1.25×10^6 cells/ml, and 80 μl of infected cells were distributed in each well containing compounds to be tested or control wells. The plates were then incubated at 37° for 5 days.
Assay Used to Measure the Inhibition of HIV Replication by the Compounds (According to (According to Gregg S. Jones et al., Antimicrobial Agents and Chemotherapy, 2009, 53 (3): 1194-1203).
After 5 days of incubation, 50 μl of CellTiter-Glo reagent (Promega Biosciences, Inc., Madison Wis., USA) were added to each well. Cell lysis was carried out at room temperature during 10 min, 150 μl of lysates were transferred in Packard Optiplate 96 well, and luminescence was read on a Fluoroskan (Thermo Scientific).
The EC50, or effective concentration 50, is the concentration of compound leading to 50% of cyto-protection in a Cell-Titer-Glo® viability assay based on MT^4 cells infected with NL4-3 virus (table 1).

For `CC(C)(C)OC(C(=O)O)c1c(C(F)(F)F)ccc(-c2ccc(N)cc2)c1-c1ccc2c(c1)CCCO2` (stereo not drawn) [Example 20, 2-[3-(4-aminophenyl)-2-(3,4-dihydro-2H-1-benzopyran-6-yl)-6-(trifluoromethyl)phenyl]-2-(tert-butoxy)acetic acid], which EC50 is on record?
The EC50 was 150 nM.

How did the EC50 turn out when `COc1ccc(-c2ccc(C(F)(F)F)c(C(OC(C)(C)C)C(=O)O)c2-c2ccc3c(c2)CCCO3)cc1` (stereo not drawn) [Example 8, 2-(tert-butoxy)-2-[2-(3,4-dihydro-2H-1-benzopyran-6-yl)-3-(4-methoxyphenyl)-6-(trifluoromethyl)phenyl]acetic acid] was run?
Its EC50 is 240 nM.

Which EC50 does the source give for `CC(C)Cn1cc(-c2ccc(C(F)(F)F)c(C(OC(C)(C)C)C(=O)O)c2-c2ccc3c(c2)CCCO3)ccc1=O` (stereo not drawn) [Example 32, 2-(tert-butoxy)-2-[2-(3,4-dihydro-2H-1-benzopyran-6-yl)-3-[1-(2-methylpropyl)-6-oxo-1,6-dihydropyridin-3-yl]-6-(trifluoromethyl)phenyl]acetic acid] here?
Its EC50 is 85 nM.

With `CC(C)(C)OC(C(=O)O)c1c(C(F)(F)F)ccc(-n2cc(Cl)cn2)c1-c1ccc2c(c1)CCCO2` (stereo not drawn) [Example 10, 2-[3-(4-chloro-1H-pyrazol-1-yl)-2-(3,4-dihydro-2H-1-benzopyran-6-yl)-6-(trifluoromethyl)phenyl]-2-(tert-butoxy)acetic acid] as the compound, how does the EC50 read?
The EC50 was 480 nM.

`CCCn1cc(-c2ccc(C(F)(F)F)c(C(OC(C)(C)C)C(=O)O)c2-c2ccc3c(c2)CCCO3)ccc1=O` (stereo not drawn) [Example 25, 2-(tert-butoxy)-2-[2-(3,4-dihydro-2H-1-benzopyran-6-yl)-3-(6-oxo-1-propyl-1,6-dihydropyridin-3-yl)-6-(trifluoromethyl)phenyl]acetic acid] was tested. Which EC50 did it give?
The EC50 was 220 nM.

With `CC(C)(C)OC(C(=O)O)c1c(C(F)(F)F)ccc(C2=CCCC2)c1-c1ccc2c(c1)CCCO2` (stereo not drawn) [Example 3, 2-(tert-butoxy)-2-[3-(cyclopent-1-en-1-yl)-2-(3,4-dihydro-2H-1-benzopyran-6-yl)-6-(trifluoromethyl)phenyl]acetic acid] as the compound, how does the EC50 read?
The EC50 was 400 nM.

Which EC50 does the source give for `CC(C)(C)OC(C(=O)O)c1c(C(F)(F)F)ccc(-c2ccc(=O)n(CCC3CC3)c2)c1-c1ccc2c(c1)CCCO2` (stereo not drawn) [Example 31, 2-(tert-butoxy)-2-{3-[1-(2-cyclopropylethyl)-6-oxo-1,6-dihydropyridin-3-yl]-2-(3,4-dihydro-2H-1-benzopyran-6-yl)-6-(trifluoromethyl)phenyl}acetic acid] here?
The EC50 was 260 nM.

For `CNC(=O)c1ccc(-c2ccc(C(F)(F)F)c(C(OC(C)(C)C)C(=O)O)c2-c2ccc3c(c2)CCCO3)cc1` (stereo not drawn) [Example 19, 2-(tert-butoxy)-2-[2-(3,4-dihydro-2H-1-benzopyran-6-yl)-3-[4-(methylcarbamoyl)phenyl]-6-(trifluoromethyl)phenyl]acetic acid], which EC50 is on record?
Its EC50 is 330 nM.

With `CC(C)(C)OC(C(=O)O)c1c(C(F)(F)F)ccc(-c2cccc(N)c2)c1-c1ccc2c(c1)CCCO2` (stereo not drawn) [Example 23, 2-[3-(3-aminophenyl)-2-(3,4-dihydro-2H-1-benzopyran-6-yl)-6-(trifluoromethyl)phenyl]-2-(tert-butoxy)acetic acid] as the compound, how does the EC50 read?
Its EC50 is 190 nM.

For `CC(C)(C)OC(C(=O)O)c1c(C(F)(F)F)ccc(-c2ccccc2)c1-c1ccc2c(c1)CCCO2` (stereo not drawn) [Example 1, 2-(tert-butoxy)-2-[2-(3,4-dihydro-2H-1-benzopyran-6-yl)-3-phenyl-6-(trifluoromethyl)phenyl]acetic acid], which EC50 is on record?
The EC50 was 260 nM.

`CC(C)(C)OC(C(=O)O)c1c(C(F)(F)F)ccc(-c2cnn3ccccc23)c1-c1ccc2c(c1)CCCO2` (stereo not drawn) [Example 12, 2-(tert-butoxy)-2-[2-(3,4-dihydro-2H-1-benzopyran-6-yl)-3-{pyrazolo[1,5-a]pyridin-3-yl}-6-(trifluoromethyl)phenyl]acetic acid] was tested. Which EC50 did it give?
Its EC50 is 420 nM.

With `CC(C)(C)OC(C(=O)O)c1c(C(F)(F)F)ccc(-c2ccnc(OCc3ccccc3)c2)c1-c1ccc2c(c1)CCCO2` (stereo not drawn) [Example 6, 2-{3-[2-(benzyloxy)pyridin-4-yl]-2-(3,4-dihydro-2H-1-benzopyran-6-yl)-6-(trifluoromethyl)phenyl}-2-(tert-butoxy)acetic acid] as the compound, how does the EC50 read?
Its EC50 is 260 nM.

With `CC(C)(C)OC(C(=O)O)c1c(C(F)(F)F)ccc(-c2ccc(=O)n(C3CC3)c2)c1-c1ccc2c(c1)CCCO2` (stereo not drawn) [Example 39, 2-(tert-butoxy)-2-[3-(1-cyclopropyl-6-oxo-1,6-dihydropyridin-3-yl)-2-(3,4-dihydro-2H-1-benzopyran-6-yl)-6-(trifluoromethyl)phenyl]acetic acid] as the compound, how does the EC50 read?
Its EC50 is 330 nM.

With `CC(=O)Nc1ccc(-c2ccc(C(F)(F)F)c(C(OC(C)(C)C)C(=O)O)c2-c2ccc3c(c2)CCCO3)cc1` (stereo not drawn) [Example 21, 2-(tert-butoxy)-2-[3-(4-acetamidophenyl)-2-(3,4-dihydro-2H-1-benzopyran-6-yl)-6-(trifluoromethyl)phenyl]acetic acid] as the compound, how does the EC50 read?
The EC50 was 170 nM.

How did the EC50 turn out when `CCCc1cc(-c2ccc(C(F)(F)F)c(C(OC(C)(C)C)C(=O)O)c2-c2ccc3c(c2)CCCO3)ccn1` (stereo not drawn) [Example 28, 2-(tert-butoxy)-2-[2-(3,4-dihydro-2H-1-benzopyran-6-yl)-3-(2-propylpyridin-4-yl)-6-(trifluoromethyl)phenyl]acetic acid] was run?
The EC50 was 78 nM.

`CC(C)(C)OC(C(=O)O)c1c(C(F)(F)F)ccc(-c2ccc(=O)n(Cc3ccccc3)c2)c1-c1ccc2c(c1)CCCO2` (stereo not drawn) [Example 26, 2-[3-(1-benzyl-6-oxo-1,6-dihydropyridin-3-yl)-2-(3,4-dihydro-2H-1-benzopyran-6-yl)-6-(trifluoromethyl)phenyl]-2-(tert-butoxy)acetic acid] was tested. Which EC50 did it give?
The EC50 was 440 nM.

Which EC50 does the source give for `CCCc1cccc(-c2ccc(C(F)(F)F)c(C(OC(C)(C)C)C(=O)O)c2-c2ccc3c(c2)CCCO3)c1` (stereo not drawn) [Example 29, 2-(tert-butoxy)-2-[2-(3,4-dihydro-2H-1-benzopyran-6-yl)-3-(3-propylphenyl)-6-(trifluoromethyl)phenyl]acetic acid] here?
The EC50 was 430 nM.

`CC(C)(C)OC(C(=O)O)c1c(C(F)(F)F)ccc(-c2ccncc2F)c1-c1ccc2c(c1)CCCO2` (stereo not drawn) [Example 17, 2-(tert-butoxy)-2-[2-(3,4-dihydro-2H-1-benzopyran-6-yl)-3-(3-fluoropyridin-4-yl)-6-(trifluoromethyl)phenyl]acetic acid] was tested. Which EC50 did it give?
Its EC50 is 250 nM.

With `CC(C)(C)OC(C(=O)O)c1c(C(F)(F)F)ccc(-c2ccncn2)c1-c1ccc2c(c1)CCCO2` (stereo not drawn) [Example 16, 2-(tert-butoxy)-2-[2-(3,4-dihydro-2H-1-benzopyran-6-yl)-3-(pyrimidin-4-yl)-6-(trifluoromethyl)phenyl]acetic acid] as the compound, how does the EC50 read?
Its EC50 is 940 nM.

How did the EC50 turn out when `CC(C)(C)OC(C(=O)O)c1c(C(F)(F)F)ccc(-c2ccc(=O)n(CC3CCC3)c2)c1-c1ccc2c(c1)CCCO2` (stereo not drawn) [Example 30, 2-(tert-butoxy)-2-{3-[1-(cyclobutylmethyl)-6-oxo-1,6-dihydropyridin-3-yl]-2-(3,4-dihydro-2H-1-benzopyran-6-yl)-6-(trifluoromethyl)phenyl}acetic acid] was run?
Its EC50 is 67 nM.

With `CC(C)(C)OC(C(=O)O)c1c(C(F)(F)F)ccc(-c2ccncc2)c1-c1ccc2c(c1)CCCO2` (stereo not drawn) [Example 2, 2-(tert-butoxy)-2-[2-(3,4-dihydro-2H-1-benzopyran-6-yl)-3-(pyridin-4-yl)-6-(trifluoromethyl)phenyl]acetic acid] as the compound, how does the EC50 read?
The EC50 was 250 nM.

How did the EC50 turn out when `Cc1ccc(-c2ccc(=O)n(CC3CCC3)c2)c(-c2ccc3c(c2C)CCCO3)c1C(OC(C)(C)C)C(=O)O` (stereo not drawn) [Example 37, 2-(tert-butoxy)-2-[3-(1-cyclobutylmethyl-6-oxo-1,6-dihydro-pyridin-3-yl)-6-methyl-2-[5-methyl-(3,4-dihydro-2H-1-benzopyran-6-yl)]phenyl]acetic acid] was run?
Its EC50 is 310 nM.

Which EC50 does the source give for `CC(C)(C)OC(C(=O)O)c1c(C(F)(F)F)ccc(-c2ccc(C(N)=O)cc2)c1-c1ccc2c(c1)CCCO2` (stereo not drawn) [Example 13, 2-(tert-butoxy)-2-[3-(4-carbamoylphenyl)-2-(3,4-dihydro-2H-1-benzopyran-6-yl)-6-(trifluoromethyl)phenyl]acetic acid] here?
Its EC50 is 830 nM.

With `CC(C)(C)OC(C(=O)O)c1c(C(F)(F)F)ccc(-c2cnn(CC(F)(F)F)c2)c1-c1ccc2c(c1)CCCO2` (stereo not drawn) [Example 22, 2-(tert-butoxy)-2-{2-(3,4-dihydro-2H-1-benzopyran-6-yl)-3-[1-(2,2,2-trifluoroethyl)-1H-pyrazol-4-yl]-6-(trifluoromethyl)phenyl}acetic acid] as the compound, how does the EC50 read?
Its EC50 is 320 nM.
